Data published in PubChem BioAssay (NCI).
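Each compound was tested at five concentrations against cells in 96-well plates for 48 hours. At the TGI there is no net growth.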

Legend:
Assay in all cases: NCI tumour cell line growth inhibition, 48 h
SF-539 CNS = tested on: SF-539 CNS
LOX IMVI melanoma = tested on: LOX IMVI melanoma
MCF7 breast = tested on: MCF7 breast
A498 renal = tested on: A498 renal
SN12C renal = tested on: SN12C renal
HS 578T breast = tested on: HS 578T breast
MALME-3M melanoma = tested on: MALME-3M melanoma
SNB-75 CNS = tested on: SNB-75 CNS
MOLT-4 leukemia = tested on: MOLT-4 leukemia
PC-3 prostate = tested on: PC-3 prostate
M14 melanoma = tested on: M14 melanoma
SF-268 CNS = tested on: SF-268 CNS
HCC-2998 colon = tested on: HCC-2998 colon
OVCAR-3 ovarian = tested on: OVCAR-3 ovarian
OVCAR-5 ovarian = tested on: OVCAR-5 ovarian
T-47D breast = tested on: T-47D breast
HCT-15 colon = tested on: HCT-15 colon
SK-MEL-5 melanoma = tested on: SK-MEL-5 melanoma
ACHN renal = tested on: ACHN renal
HT29 colon = tested on: HT29 colon
UACC-257 melanoma = tested on: UACC-257 melanoma
UO-31 renal = tested on: UO-31 renal
786-0 renal = tested on: 786-0 renal
COLO 205 colon = tested on: COLO 205 colon
TK-10 renal = tested on: TK-10 renal
OVCAR-8 ovarian = tested on: OVCAR-8 ovarian
MDA-N = tested on: MDA-N
SK-MEL-28 melanoma = tested on: SK-MEL-28 melanoma
RXF 393 renal = tested on: RXF 393 renal
K-562 leukemia = tested on: K-562 leukemia
RPMI-8226 leukemia = tested on: RPMI-8226 leukemia
HL-60(TB) leukemia = tested on: HL-60(TB) leukemia
EKVX NSCLC = tested on: EKVX NSCLC
HCT-116 colon = tested on: HCT-116 colon
NCI/ADR-RES ovarian = tested on: NCI/ADR-RES ovarian
NCI-H460 lung = tested on: NCI-H460 lung
SK-OV-3 ovarian = tested on: SK-OV-3 ovarian
KM12 colon = tested on: KM12 colon
SF-295 CNS = tested on: SF-295 CNS
SW-620 colon = tested on: SW-620 colon
OVCAR-4 ovarian = tested on: OVCAR-4 ovarian
NCI-H23 lung = tested on: NCI-H23 lung
MDA-MB-231 breast = tested on: MDA-MB-231 breast
CCRF-CEM leukemia = tested on: CCRF-CEM leukemia
HOP-92 NSCLC = tested on: HOP-92 NSCLC
DU-145 prostate = tested on: DU-145 prostate
UACC-62 melanoma = tested on: UACC-62 melanoma
CAKI-1 renal = tested on: CAKI-1 renal
U251 CNS = tested on: U251 CNS
HOP-62 NSCLC = tested on: HOP-62 NSCLC
SNB-19 CNS = tested on: SNB-19 CNS
NCI-H226 lung = tested on: NCI-H226 lung
MDA-MB-435 = tested on: MDA-MB-435
NCI-H522 lung = tested on: NCI-H522 lung
IGROV1 ovarian = tested on: IGROV1 ovarian
A549 NSCLC = tested on: A549 NSCLC
SK-MEL-2 melanoma = tested on: SK-MEL-2 melanoma
SR leukemia = tested on: SR leukemia
BT-549 breast = tested on: BT-549 breast

Compound `CCCCCc1cc2c(cc1O)CC[C@@H]1[C@@H]2CC[C@]2(C)[C@@H](O)CC[C@@H]12` has a TGI (SF-539 CNS) of 39.5 µM, a TGI (LOX IMVI melanoma) of 39.2 µM and a TGI (MCF7 breast) of 40.2 µM. For the same compound, the TGI (A498 renal) was 36.1 µM, the TGI (SN12C renal) was 29.8 µM and the TGI (HS 578T breast) was 46.5 µM. It also gave a TGI (MALME-3M melanoma) of 35.5 µM, a TGI (SNB-75 CNS) of 30.5 µM and a TGI (MOLT-4 leukemia) of 85.3 µM. The TGI (PC-3 prostate) was 33.1 µM, the TGI (M14 melanoma) was 29.4 µM and the TGI (SF-268 CNS) was 38.9 µM. It also gave a TGI (HCC-2998 colon) of 40 µM, a TGI (OVCAR-3 ovarian) of 29.4 µM and a TGI (OVCAR-5 ovarian) of 33.6 µM. It also gave a TGI (T-47D breast) of 55.5 µM, a TGI (HCT-15 colon) of 31.3 µM and a TGI (SK-MEL-5 melanoma) of 34.7 µM. The TGI (ACHN renal) was 27.5 µM, the TGI (HT29 colon) was 41.2 µM and the TGI (UACC-257 melanoma) was 43.1 µM. For the same compound, the TGI (UO-31 renal) was 28.4 µM, the TGI (786-0 renal) was 28.9 µM and the TGI (COLO 205 colon) was 29.6 µM. It also gave a TGI (TK-10 renal) of 34 µM, a TGI (OVCAR-8 ovarian) of 43 µM and a TGI (MDA-N) of 35.1 µM. It also gave a TGI (SK-MEL-28 melanoma) of 30.7 µM, a TGI (RXF 393 renal) of 38.3 µM and a TGI (K-562 leukemia) of 34.9 µM. It also gave a TGI (RPMI-8226 leukemia) of 62.2 µM, a TGI (HL-60(TB) leukemia) of 41.4 µM and a TGI (EKVX NSCLC) of 36.8 µM. For the same compound, the TGI (HCT-116 colon) was 31.6 µM, the TGI (NCI/ADR-RES ovarian) was 37.7 µM and the TGI (NCI-H460 lung) was 36.5 µM. It also gave a TGI (SK-OV-3 ovarian) of 45 µM, a TGI (KM12 colon) of 26.1 µM and a TGI (SF-295 CNS) of 28.2 µM. The TGI (SW-620 colon) was 46.4 µM, the TGI (OVCAR-4 ovarian) was 42.8 µM and the TGI (NCI-H23 lung) was 40.3 µM. For the same compound, the TGI (MDA-MB-231 breast) was 33.3 µM, the TGI (CCRF-CEM leukemia) was 92.8 µM and the TGI (HOP-92 NSCLC) was 32.3 µM. It also gave a TGI (DU-145 prostate) of 31.4 µM, a TGI (UACC-62 melanoma) of 35.4 µM and a TGI (CAKI-1 renal) of 40.4 µM. For the same compound, the TGI (U251 CNS) was 38.1 µM, the TGI (HOP-62 NSCLC) was 41.7 µM and the TGI (SNB-19 CNS) was 40.3 µM. For the same compound, the TGI (NCI-H226 lung) was 32.6 µM, the TGI (MDA-MB-435) was 30.6 µM and the TGI (NCI-H522 lung) was 42.7 µM. The TGI (IGROV1 ovarian) was 36.9 µM, the TGI (A549 NSCLC) was 37.9 µM and the TGI (SK-MEL-2 melanoma) was 43.5 µM.
Compound `COc1ccc(C2OC(=O)c3c2ccc2ccccc32)c(C)c1` (centres undefined) has a TGI (MCF7 breast) of 10.1 µM, a TGI (A498 renal) of 21.2 µM and a TGI (SN12C renal) of 88.2 µM. For the same compound, the TGI (SR leukemia) was greater than 100 µM, the TGI (HS 578T breast) was greater than 100 µM and the TGI (MALME-3M melanoma) was 17.3 µM. For the same compound, the TGI (SNB-75 CNS) was 30.6 µM, the TGI (MOLT-4 leukemia) was 37 µM and the TGI (PC-3 prostate) was 97.1 µM. It also gave a TGI (M14 melanoma) greater than 100 µM, a TGI (HCC-2998 colon) of 3.34 µM and a TGI (OVCAR-5 ovarian) greater than 100 µM. It also gave a TGI (HCT-15 colon) of 19.9 µM, a TGI (SK-MEL-5 melanoma) of 6.82 µM and a TGI (ACHN renal) greater than 100 µM. It also gave a TGI (HT29 colon) greater than 100 µM, a TGI (UACC-257 melanoma) of 80.5 µM and a TGI (UO-31 renal) greater than 100 µM. It also gave a TGI (786-0 renal) of 18.1 µM, a TGI (COLO 205 colon) of 21.9 µM and a TGI (TK-10 renal) of 17.7 µM. For the same compound, the TGI (BT-549 breast) was 69.4 µM, the TGI (OVCAR-8 ovarian) was greater than 100 µM and the TGI (MDA-N) was 4.34 µM. For the same compound, the TGI (SK-MEL-28 melanoma) was greater than 100 µM, the TGI (RXF 393 renal) was greater than 100 µM and the TGI (K-562 leukemia) was greater than 100 µM. For the same compound, the TGI (RPMI-8226 leukemia) was 60.9 µM, the TGI (HL-60(TB) leukemia) was 5.38 µM and the TGI (EKVX NSCLC) was greater than 100 µM. The TGI (HCT-116 colon) was greater than 100 µM, the TGI (NCI-H460 lung) was greater than 100 µM and the TGI (KM12 colon) was greater than 100 µM. For the same compound, the TGI (SW-620 colon) was greater than 100 µM, the TGI (NCI-H23 lung) was greater than 100 µM and the TGI (MDA-MB-231 breast) was greater than 100 µM. The TGI (HOP-92 NSCLC) was 80.1 µM, the TGI (UACC-62 melanoma) was 90.5 µM and the TGI (U251 CNS) was 20.2 µM. It also gave a TGI (HOP-62 NSCLC) of 50 µM, a TGI (SNB-19 CNS) greater than 100 µM and a TGI (NCI-H226 lung) of 67.6 µM. The TGI (IGROV1 ovarian) was greater than 100 µM, the TGI (A549 NSCLC) was 73.4 µM and the TGI (SK-MEL-2 melanoma) was 7.52 µM.
With `COP(=O)(OC)C(N)CCSC` (centres undefined) the TGI (LOX IMVI melanoma) was greater than 100 µM, the TGI (MCF7 breast) was greater than 100 µM and the TGI (SN12C renal) was greater than 100 µM. For the same compound, the TGI (SR leukemia) was greater than 100 µM, the TGI (HS 578T breast) was greater than 100 µM and the TGI (MALME-3M melanoma) was greater than 100 µM. It also gave a TGI (SNB-75 CNS) greater than 100 µM, a TGI (MOLT-4 leukemia) greater than 100 µM and a TGI (PC-3 prostate) greater than 100 µM. The TGI (M14 melanoma) was greater than 100 µM, the TGI (SF-268 CNS) was greater than 100 µM and the TGI (OVCAR-3 ovarian) was greater than 100 µM. It also gave a TGI (OVCAR-5 ovarian) greater than 100 µM, a TGI (HCT-15 colon) greater than 100 µM and a TGI (SK-MEL-5 melanoma) greater than 100 µM. The TGI (ACHN renal) was greater than 100 µM, the TGI (HT29 colon) was greater than 100 µM and the TGI (UACC-257 melanoma) was greater than 100 µM. The TGI (UO-31 renal) was greater than 100 µM, the TGI (786-0 renal) was greater than 100 µM and the TGI (COLO 205 colon) was greater than 100 µM. The TGI (TK-10 renal) was greater than 100 µM, the TGI (BT-549 breast) was greater than 100 µM and the TGI (OVCAR-8 ovarian) was greater than 100 µM. The TGI (MDA-N) was greater than 100 µM, the TGI (SK-MEL-28 melanoma) was greater than 100 µM and the TGI (K-562 leukemia) was greater than 100 µM. For the same compound, the TGI (RPMI-8226 leukemia) was greater than 100 µM, the TGI (HL-60(TB) leukemia) was greater than 100 µM and the TGI (EKVX NSCLC) was greater than 100 µM. The TGI (HCT-116 colon) was greater than 100 µM, the TGI (NCI/ADR-RES ovarian) was greater than 100 µM and the TGI (NCI-H460 lung) was greater than 100 µM. For the same compound, the TGI (SK-OV-3 ovarian) was greater than 100 µM, the TGI (KM12 colon) was greater than 100 µM and the TGI (SF-295 CNS) was greater than 100 µM. The TGI (SW-620 colon) was greater than 100 µM, the TGI (OVCAR-4 ovarian) was greater than 100 µM and the TGI (NCI-H23 lung) was greater than 100 µM. It also gave a TGI (CCRF-CEM leukemia) greater than 100 µM, a TGI (HOP-92 NSCLC) greater than 100 µM and a TGI (UACC-62 melanoma) greater than 100 µM. The TGI (CAKI-1 renal) was greater than 100 µM, the TGI (U251 CNS) was greater than 100 µM and the TGI (HOP-62 NSCLC) was greater than 100 µM. The TGI (SNB-19 CNS) was greater than 100 µM, the TGI (NCI-H226 lung) was greater than 100 µM and the TGI (MDA-MB-435) was greater than 100 µM. For the same compound, the TGI (NCI-H522 lung) was greater than 100 µM, the TGI (IGROV1 ovarian) was greater than 100 µM and the TGI (A549 NSCLC) was greater than 100 µM. For the same compound, the TGI (SK-MEL-2 melanoma) was greater than 100 µM.
